Results reported in the NIST ThermoML archive (doi:10.1021/je0500734).

Experiment: xn = mol fraction of the nth substance listed
Settings: 101.33 kPa, Liquid; for speed of sound: acoustic time of flight gauge

[2H]C([2H])([2H])[N+](=O)[O-] [deuteronitromethane] + CCCCCO
Settings	mass density, 303.5 K [kg/m3]	mass density, 307.5 K [kg/m3]	viscosity, 303.5 K [mPa·s]	viscosity, 307.5 K [mPa·s]
x1 = 0.08	823.07	819.05	–	–
x1 = 0.103	–	–	2.46	2.158
x1 = 0.178	843.08	838.92	–	–
x1 = 0.206	–	–	2.16	1.82
x1 = 0.245	858.21	853.8	–	–
x1 = 0.302	–	–	1.796	1.517
x1 = 0.351	883.03	878.4	–	–
x1 = 0.401	896.26	891.53	–	–
x1 = 0.418	–	–	1.447	1.251
x1 = 0.49	922.6	917.6	–	–
x1 = 0.502	–	–	1.24	1.077
x1 = 0.598	–	–	1.069	0.9159
x1 = 0.615	966.2	960.5	1.033	0.8939
x1 = 0.644	–	–	1.026	0.8578
x1 = 0.669	988.3	982.16	–	–
x1 = 0.749	1024.62	1018.46	–	–
x1 = 0.758	–	–	0.7821	0.7064
x1 = 0.801	–	–	0.7859	0.6878
x1 = 0.86	1084.42	1077.9	–	–
x1 = 0.904	–	–	0.6496	0.5971
x1 = 0.959	1149.88	1142.39	–	–
x1 = 1	1180.03	1172.08	0.6274	0.5819

CCCCCO [pentan-1-ol] + [2H]C([2H])([2H])[N+](=O)[O-]
x2 = 0
Settings	mass density [kg/m3]	viscosity [mPa·s]
303.5 K	807.33	2.997
307.5 K	803.76	2.57

C[N+](=O)[O-] [nitromethane] + CCCCCO
Settings	mass density [kg/m3]	speed of sound [m/s]	viscosity [mPa·s]
301.15 K, x1 = 0.065	818.89	–	–
301.15 K, x1 = 0.099	–	1258.1	–
301.15 K, x1 = 0.113	–	–	2.379
301.15 K, x1 = 0.127	828.49	–	–
301.15 K, x1 = 0.186	838.83	–	–
301.15 K, x1 = 0.202	–	1252.1	–
301.15 K, x1 = 0.203	–	–	2.119
301.15 K, x1 = 0.26	852.95	–	–
301.15 K, x1 = 0.302	–	1248.3	–
301.15 K, x1 = 0.31	863.38	–	–
301.15 K, x1 = 0.314	–	–	1.743
301.15 K, x1 = 0.398	883.3	–	1.487
301.15 K, x1 = 0.401	–	1245.4	–
301.15 K, x1 = 0.469	–	–	1.231
301.15 K, x1 = 0.502	–	1242.7	–
301.15 K, x1 = 0.503	910.3	–	–
301.15 K, x1 = 0.516	–	–	1.111
301.15 K, x1 = 0.54	920.98	–	–
301.15 K, x1 = 0.616	944.27	–	–
301.15 K, x1 = 0.619	–	1243.9	–
301.15 K, x1 = 0.62	–	–	0.9425
301.15 K, x1 = 0.699	973.7	–	–
301.15 K, x1 = 0.701	–	1247	–
301.15 K, x1 = 0.752	–	–	0.7812
301.15 K, x1 = 0.753	994.05	–	–
301.15 K, x1 = 0.801	–	–	0.7348
301.15 K, x1 = 0.802	1016.76	1258.9	–
301.15 K, x1 = 0.824	–	–	0.679
301.15 K, x1 = 0.849	–	–	0.673
301.15 K, x1 = 0.902	–	1281.2	–
301.15 K, x1 = 0.911	1070.91	–	–
301.15 K, x1 = 0.934	–	–	0.6149
301.15 K, x1 = 1	1126.24	1305.3	0.6091
306.15 K, x1 = 0.065	815.14	–	–
306.15 K, x1 = 0.099	–	1240.6	–
306.15 K, x1 = 0.113	–	–	2.009
306.15 K, x1 = 0.127	824.47	–	–
306.15 K, x1 = 0.186	834.67	–	–
306.15 K, x1 = 0.202	–	1234.6	–
306.15 K, x1 = 0.203	–	–	1.744
306.15 K, x1 = 0.26	848.61	–	–
306.15 K, x1 = 0.302	–	1230.6	–
306.15 K, x1 = 0.31	858.74	–	–
306.15 K, x1 = 0.314	–	–	1.473
306.15 K, x1 = 0.398	878.5	–	1.282
306.15 K, x1 = 0.401	–	1227.7	–
306.15 K, x1 = 0.469	–	–	1.093
306.15 K, x1 = 0.502	–	1225.5	–
306.15 K, x1 = 0.503	905.13	–	–
306.15 K, x1 = 0.516	–	–	0.9447
306.15 K, x1 = 0.54	915.83	–	–
306.15 K, x1 = 0.616	939	–	–
306.15 K, x1 = 0.619	–	1226.6	–
306.15 K, x1 = 0.62	–	–	0.7854
306.15 K, x1 = 0.699	967.99	–	–
306.15 K, x1 = 0.701	–	1230.2	–
306.15 K, x1 = 0.752	–	–	0.6945
306.15 K, x1 = 0.753	987.94	–	–
306.15 K, x1 = 0.801	–	–	0.6634
306.15 K, x1 = 0.802	1010.21	1241.7	–
306.15 K, x1 = 0.824	–	–	0.6288
306.15 K, x1 = 0.849	–	–	0.6161
306.15 K, x1 = 0.902	–	1262.1	–
306.15 K, x1 = 0.911	1064.52	–	–
306.15 K, x1 = 0.934	–	–	0.5661
306.15 K, x1 = 1	1119.36	1285.2	0.5636
